Patent US12577532B2, “Xeno-free and transgene-free reprograming of mesenchymal stem cells toward neural progenitor cells” (UNIVERSITY OF CENTRAL FLORIDA RESEARCH FOUNDATION, INC., priority 2019, dated 2026)

Tests used:
MSC = test: Reprogramming of MSCs toward neural progenitor spheres (neurosphere production); type: cell-based
Procedure: MSC media contains DMEM F:12, 10% KSR, 5% Glutamax, 5% NNEA, 1% Penicillin/streptomycin. We used 12 well treated plates for production.
MSCs are seeded in culture media and allowed to grow up under serum-free conditions until 80% confluence on adherent conditions using laminin as coat.
At stage 1, fresh media and NSC exosomes (and in two methodologies also we used pluripotent cells to enhance de-differentiation) as a source of linage specific signals, are provided to the cultured MSCs (typically following decitabine treatment), and exposed to NSC exosomes for 1-5 days. Following stage 1, (typically at day 5) stage 2 involves switching out media and NSC exosomes and exposing the cells to the fresh media and NSC exosomes for 5-15 days. After stage 2, (typically at day 15 from the start of stage 1) stage 3 involves switching out media and NSC exosomes with fresh media lacking NSC exosomes and allowing the cells to grow for 5-7 days. After stage 3, (typically at day 20-22 from the start of stage 1), neural progenitor spheres (the primary colonies) are isolated from the culture. After isolation occurs, the neurospheres are picked to keep on suspension for expansion and experimentation. […]

iNSC-MSC = test: Differentiation potential of iNSC-MSC under serum free conditions (immunofluorescence); type: cell-based; settings: methods using decitabine (method 2 & 4) versus methods without
Source text: The resultant cells of the four methods express neural differentiation markers Bill, GFAP and NeuN, especially in the surrounded areas of the spheres. On the other hand, they keep NSC markers Sox2, Sox1 and CD90 on the spheres. […] All nuclei were counterstained with DAPI. Scale bar, 50 μm.

Question: `Nc1ncn([C@H]2C[C@H](O)[C@@H](CO)O2)c(=O)n1` [decitabine, 5-aza-2′-deoxycytidine] was tested. Which “number of primary neurospheres produced” value (MSC; MSC cultured with NSC exosomes, day 21 of production (FIG. 2B)) did it give?
Answer: enhances the number of spheres produced

Question: And the spheres produced (MSC; MSC treated without NSC exosomes)?
Answer: no spheres were found produced

Question: And the “immunofluorescence intensities for BII tubulin” value (iNSC-MSC)?
Answer: significant less iimmunofluorescence intensities
